The values below are quoted from earlier work in patent publication US20040086492A1, “Method of treating tumor and consignment system of proliferating and processing activated lymphocytes to be used in parallel to pdt” (priority 2001, published 2004).

The conditions of this series: stated as a characteristic of Photofrin.

porfirmer sodium [Photofrin]: the “rate taken into cancerous tissue relative to normal tissue” value is listed as “approximately 10 times”.
